Results taken from US11612615B2, “Combined administration of cysteine-aspartic protease inhibitors with P2Y12 receptor antagonists protects the heart against myocardial infarction” (The University of South Alabama, priority 2017, dated 2023).
“Also recorded” adds a separate entry of the source.

Experiments:
[1] = test system: I/R injury of the heart (LAD occlusion); test: In situ open-chest LAD occlusion, 60-min ischemia/120-min reperfusion, infarct size by TTC staining; format: in vivo, Sprague-Dawley rats; conditions: for infarct size / cardioprotection (in words): open chest rat hearts, 60 min ischemia/120-min reperfusion, treatment just prior to reperfusion; for infarction, % of the risk zone: rat, 60-min LAD ligation/120-min reperfusion, VX-765 32 mg/kg iv 5 min, cangrelor 60 μg/kg iv bolus + 6 μg/kg/min, ticagrelor 30 mg/kg ip 10 min prior to reperfusion, mean ± standard error
[2] = test system: blood-free isolated rat hearts (global I/R injury); test: Ex vivo isolated buffer-perfused heart, 40-min global ischemia/120-min reperfusion
Experimental: To examine effects of VX-765 on blood-free isolated hearts, rats were anesthetized as described above. Animals were intubated through tracheotomy and positive pressure ventilation initiated with 100% oxygen. A thoracotomy was performed and the heart was quickly excised from the chest cavity for mounting on a Langendorff apparatus (within one minute). The coronary arteries were retroperfused with Krebs buffer through the aortic root and a latex balloon was placed in the lumen of the left ventricle allowing volume adjustment to 100 mmHg peak ventricular pressure. After a 20-min period of equilibration, perfusion was stopped for 40-min to induce global ischemia. The heart was maintained in a water-jacketed chamber filled with buffer during the occlusion period at a constant temperature of 37° C. Perfusion was re-initiated and continued for 120-min. The balloon was deflated at the beginning of reperfusion so subendocardial perfusion would not be impaired by any elevation in luminal diastolic pressure. The balloon was reinflated to zero diastolic pressure (unstressed ventricular volume) so final developed pressure could be measured. The coronary effluent was sampled immediately prior to ischemia, immediately at reperfusion, and serially thereafter every 20-min. The heart was perfused with buffer containing either vehicle (DMSO) or VX-765 for 10-min prior to ischemia and again during reperfusion. Two groups were tested: 1) DMSO vehicle control perfused at 0.5 mL/L of buffer and 2) VX-765, 30 μM final concentration. After 120 minutes reperfusion, developed pressure was measured as the difference between end-systolic and end-diastolic left ventricular pressure with a transducer attached to the intraventricular balloon. Infarct size was measured as above. Collected effluent was analyzed for lactate dehydrogenase (LDH) as previously described. An independent aliquot was concentrated 20-fold using a 3,000 MW cut-off ultrafilter (Millipore) and assayed for IL-113 by ELISA (ThermoFisher Scientific).

IL-1β = test: In situ open-chest LAD occlusion, 60-min ischemia/30-min reperfusion: serum IL-1β ELISA; format: in vivo, rat; conditions: VX-765 32 mg/kg 5-min prior to reperfusion, FIG. 4A
Experimental: (§1) Applicants' standard in situ open chest LAD occlusion protocol was modified to examine effects of a 30-min reperfusion period on heart tissue enzymes and metabolic function. Two groups were tested with infusions occurring 5-min prior to reperfusion: 1) vehicle control DMSO (the VX-765 solvent) was administered as (1.0 mL of 100% DMSO)×(kg body weight) with the final infusion volume adjusted to 0.9 mL with normal saline; and 2) VX-765, 32 mg/kg. Immediately prior to experiment terminus, blood was collected and serum assayed by ELISA for levels of circulating IL-113. At experiment terminus, the heart was removed from the chest and mounted on a Langendorff apparatus where it was perfused with normal saline. The coronary branch was re-occluded and 15 μm fluorescent microspheres were infused to identify the ischemic zone followed by acquisition of biopsies from both ischemic and non-ischemic zones. […] Normalized amounts of protein were resolved by SDS-PAGE (4-20% Tris-Glycine gradient gels) and analyzed by immunoblotting using antibodies against Caspase-1, glyceraldehyde-3-phosphate dehydrogenase (GAPDH), Aldolase-A, and Hexokinase II. […] For all blotting experiments, protein transfer membranes were first stained with Coomassie Brilliant Blue (CBB) and analyzed on the LiCor Odyssey for total protein levels. […]

[3] = test system: Caspase-1, GAPDH, Aldolase-A, Hexokinase II; test: 60-min ischemia/30-min reperfusion: immunoblotting of heart tissue biopsies; format: in vivo, rat
Experimental: (§2) Applicants' standard in situ open chest LAD occlusion protocol was modified to examine effects of a 30-min reperfusion period on heart tissue enzymes and metabolic function. Two groups were tested with infusions occurring 5-min prior to reperfusion: 1) vehicle control DMSO (the VX-765 solvent) was administered as (1.0 mL of 100% DMSO)×(kg body weight) with the final infusion volume adjusted to 0.9 mL with normal saline; and 2) VX-765, 32 mg/kg. Immediately prior to experiment terminus, blood was collected and serum assayed by ELISA for levels of circulating IL-113. At experiment terminus, the heart was removed from the chest and mounted on a Langendorff apparatus where it was perfused with normal saline. The coronary branch was re-occluded and 15 μm fluorescent microspheres were infused to identify the ischemic zone followed by acquisition of biopsies from both ischemic and non-ischemic zones. Viable samples were immediately prepared for high resolution respirometry using the Oroboros oxygraph O2K as previously described. In parallel, a portion of the biopsied tissue was immediately ejected into liquid nitrogen and stored at −80° C. Subsequently, tissues were homogenized and solubilized for analyses of total protein. Normalized amounts of protein were resolved by SDS-PAGE (4-20% Tris-Glycine gradient gels) and analyzed by immunoblotting using antibodies against Caspase-1, glyceraldehyde-3-phosphate dehydrogenase (GAPDH), Aldolase-A, and Hexokinase II. In a separate set of blots, samples were assayed for protein oxidation (carbonylation) using the oxidized protein western blot kit (Abcam, oxyblotting). For all blotting experiments, protein transfer membranes were first stained with Coomassie Brilliant Blue (CBB) and analyzed on the LiCor Odyssey for total protein levels. These CBB data were used to normalize all immuno- and oxyblotting data.

[4] = test system: mitochondrial complexes (Complex-I, Complex-III); test: 60-min ischemia/30-min reperfusion: high resolution respirometry of heart tissue biopsies; format: in vivo, rat
Experimental: as §2
Tissue mitochondrial function is reported as the amount of oxygen consumed (i.e., JO2). In this protocol, heart tissues are harvested 30-min after reperfusion to ensure tissue retention of mitochondrial function and permeabilized with detergents to allow direct assessment of each mitochondrial complex via addition of specific substrates (i.e., electron donors) and poisons. Using this early 30-min reperfusion time point allows differentiation of dysfunctional mitochondrial complex activities from the absolute loss of function occurring at later time points after cell death had ensued. As a further level of experimental control, mitochondrial complex activities were assayed in non-ischemic and ischemic zone tissues isolated from animals treated with vehicle control (DMSO) or the Caspase-1 inhibitor VX-765.

protein carbonylation = test: 60-min ischemia/30-min reperfusion: protein oxidation (carbonylation) oxyblotting of heart tissue; format: in vivo, rat; conditions: ischemic and non-ischemic tissues, FIG. 5D
Experimental: as §1

[5] = test system: buffer perfused mouse hearts (global ischemia); test: Isolated buffer-perfused mouse heart, 35 or 50 min global ischemia/2 h reperfusion, infarct size; design: species or system C57BL/6 mice; conditions: for infarct size reduction (in words): mouse heart, 30 uM VX-765 10 min prior to ischemia and throughout reperfusion, 9 uM emricasan first 20 min of reperfusion, FIG. 9
Experimental: Hearts were removed from pentobarbital-anesthetized C57BL/6 mice and quickly (less than 3 min) mounted on a Langendorff perfusion apparatus where they were retroperfused with Krebs buffer at 100 mmHg pressure and at 37 Deg C. After 20 min perfusion to equilibrate the perfusion was stopped to create global ischemia. After and index ischemia of either 35 or 50 min the hearts were reperfused for 2 h and infarct size was measured by triphenyltetrazolium staining. Treatments included 30 uM VX-765 for 10 min prior to ischemia and throughout reperfusion, 9 uM emricasan for the first 20 min of reperfusion only, Ischemic preconditioning (IPC) with three cycles of 5 min ischemic Plus 5 min reperfusion prior to the index ischemia, or IPC+emricasan.

[6] = test system: I/R injury of the heart (LAD occlusion); conditions: VX-765 16 mg/kg body weight 30-min prior to onset of ischemia; cited from earlier work
coronary I/R = conditions: rat models of coronary I/R; cited from earlier work

For `CCO[C@@H]1OC(=O)C[C@@H]1NC(=O)[C@@H]1CCCN1C(=O)[C@@H](NC(=O)c1ccc(N)c(Cl)c1)C(C)(C)C` [VX-765, (S)-1-((S)-2-{[1-(4-amino-3-chloro-phenyl)-methanoyl]-amino}-3,3-dimethyl-butanoyl)-pyrrolidine-2-carboxylic acid ((2R,3S)-2-ethoxy-5-oxo-tetrahydro-furan-3-yl)-amide], the “dose dependence of infarct size reduction (pilot studies)” value ([1]; VX-765 iv prior to ischemia, data not shown) was “independent of the dose above 16 mg/kg”, the “infarct size / cardioprotection (in words)” value [1] was “reduced infarct size” and the “infarction, % of the risk zone” value [1] was 38.6±3.9%. For the same compound, the “LDH release into coronary effluent” value ([2]; VX-765 30 μM, FIG. 3C) was “all but abolished”, the “protection against global I/R injury (in words)” value ([2]; blood free isolated buffer-perfused heart, FIG. 3) was “protects against global I/R injury” and the “left ventricular developed pressure” value ([2]; end of 120-min reperfusion, VX-765 30 μM) was 20.5±4.2 mmHg. The average infarction ([2]; isolated rat heart, VX-765 30 μM in perfusate prior to ischemia and during reperfusion) was 45.8±1.5%, the “IL-1β level in blood, vehicle (DMSO) compared to VX-765” value (IL-1β) was “significantly higher levels of IL-113 in blood when compared to animals treated with VX-765” and the “levels of active Caspase-1 in tissue” value ([3]; ischemic tissue, VX-765 32 mg/kg, FIG. 4B) was “did not prevent Caspase-1 activation”. For the same compound, the GAPDH degradation ([3]; ischemic zone, FIG. 4C) was “prevented degradation of GAPDH in the ischemic zone”, the aldolase-A degradation ([3]; ischemic zone, FIG. 4D) was “partially prevented degradation of aldolase-A” and the “hexokinase II degradation (negative control)” value ([3]; ischemic zone, FIG. 4E) was “no effect in hexokinase II”. For the same compound, the Complex-III activity ([4]; compared to vehicle, FIG. 5C) was “no significant differences”, the “JO2 in different states of mitochondrial respiration” value ([4]; different substrates, FIG. 7) was “none of the heart tissues from any group displayed JO2 differences” and the Complex-I activity ([4]; non-ischemic and ischemic tissues, compared to vehicle, FIG. 5B) was “significantly decreased Complex-I activity”. For the same compound, the “respiratory ratio (mitochondrial fitness)” value ([4]; tissues reperfused for 30-min, FIG. 5A) was “not different among all groups”, the protein carbonylation (protein carbonylation) was “no differences in protein carbonylation” and the “infarct size reduction (in words)” value [5] was “similarly reduced infarct size; also recorded: equipotent for infarct size reduction”. For the same compound, the “cardioprotection, previously reported” value [6] was “extremely cardioprotective”.

For `CSCCNc1nc(SCCC(F)(F)F)nc2c1ncn2[C@@H]1O[C@H](COP(=O)(O)OP(=O)(O)C(Cl)(Cl)P(=O)(O)O)[C@@H](O)[C@H]1O` [cangrelor], the “infarct size / cardioprotection (in words)” value [1] was “reduced infarct size” and the “infarction, % of the risk zone” value [1] was 43.8±2.4%.

With `C[C@H](NC(=O)C(=O)Nc1ccccc1C(C)(C)C)C(=O)N[C@@H](CC(=O)O)C(=O)COc1c(F)c(F)cc(F)c1F` [emricasan] the “protection in combination with ischemic preconditioning (IPC)” value ([5]; index ischemia 50 min, IPC three cycles 5 min ischemia/5 min reperfusion, 9 uM emricasan) was “additive protection”, the “infarct size reduction (in words)” value [5] was “similarly reduced infarct size; also recorded: equipotent for infarct size reduction” and the “infarct size reduction (in words)” value ([5]; listed as Emricasan) was “as protective as VX-765 pretreatment”.

With `CCCSc1nc(N[C@@H]2C[C@H]2c2ccc(F)c(F)c2)c2nnn([C@@H]3C[C@H](OCCO)[C@@H](O)[C@H]3O)c2n1` [ticagrelor] the “protection when combined with ischemic postconditioning (IPOC)” value ([1]; IPOC three cycles of 30 s reperfusion/30 s occlusion at end of 60 min ischemia, FIG. 10) was “no more protective than either alone”, the “infarct size / cardioprotection (in words)” value [1] was “reduced infarct size; also recorded: no more cardioprotective than cangrelor” and the “infarction, % of the risk zone” value [1] was 42.8±3.3%.

In the case of zVAD, the infarct size (coronary I/R) is listed as “reduced infarct size”.
